Assay results reported in patent publication US9273317B2, “Methods and compositions for inhibiting the growth and/or proliferation of MYC-driven tumor cells” (Fred Hutchinson Cancer Research Center, priority 2011, dated 2016).

Assays:
[1] = test system: HFF-pB; assay: High throughput siRNA screen, cell viability by Alamar Blue, control cells; type: cell-based, human; details: siRNA pool (3 siRNAs/pool), day 5, average of 3 replicates, relative to median of wells transfected with siRNA to luciferase
Experimental: FIG. 1. Identification of synthetic lethal genes with c-MYC overexpression by high throughput siRNA screening. a, Graphical schematic of the siRNA screen. HFF expressing either c-MYC or transduced with an empty retroviral vector, pB, were plated in 384 well plates. 24 hr later they were transfected with siRNA pools (3 siRNAs/pool) targeting a total of ˜3,311 genes, with one gene targeted per well. At day 5, the viability was quantified utilizing an Alamar Blue staining assay and an EnVision plate reader. b, Graphical representation of cell viability as affected by each siRNA pool in both HFF-pB or HFF-c-MYC and quantified as % relative to mock (on a log10 scale). Values represent the average viability of 3 replicates. […] Relative levels of each gene were calculated using the ΔΔCT method and using GAPDH to normalize mRNA levels within each sample. d, Viability of HFF-pBabe and HFF-Myc following stable, lentiviral based knock-down of MYC-SL genes CSNK1e, PES1 and CECR2. […] Y-axis indicates the % of cells stained with anti-γ-H2AX that scored for nuclear fluorescence levels above a negative control established threshold. Quantitation was obtained by automated microscopy in 96 well format, from triplicate samples. g, Quantitative assessment of Caspase-3 and -7 cleavage following transfection of the same siRNA pools as above (measured by the CaspaseGlo kit, Promega). […]

[2] = test system: HFF-MYC; assay: High throughput siRNA screen, cell viability by Alamar Blue, c-MYC overexpressing cells; type: cell-based, human
Experimental: FIG. 1. Identification of synthetic lethal genes with c-MYC overexpression by high throughput siRNA screening. a, Graphical schematic of the siRNA screen. HFF expressing either c-MYC or transduced with an empty retroviral vector, pB, were plated in 384 well plates. 24 hr later they were transfected with siRNA pools (3 siRNAs/pool) targeting a total of ˜3,311 genes, with one gene targeted per well. At day 5, the viability was quantified utilizing an Alamar Blue staining assay and an EnVision plate reader. b, Graphical representation of cell viability as affected by each siRNA pool in both HFF-pB or HFF-c-MYC and quantified as % relative to mock (on a log10 scale). Values represent the average viability of 3 replicates. A set of siRNAs (targeting 102 genes labeled as light shaded+) caused differential loss of viability (Z score>2) in the HFF-MYC versus control pB. An additional set of siRNAs targeting 20 genes caused selective growth advantage to HFF-MYC. c, CSNK1e, PES1 and CECR2 mRNA levels following lentiviral-mediated shRNA knock-down. Relative levels of each gene were calculated using the ΔΔCT method and using GAPDH to normalize mRNA levels within each sample. d, Viability of HFF-pBabe and HFF-Myc following stable, lentiviral based knock-down of MYC-SL genes CSNK1e, PES1 and CECR2. […] Y-axis indicates the % of cells stained with anti-γ-H2AX that scored for nuclear fluorescence levels above a negative control established threshold. Quantitation was obtained by automated microscopy in 96 well format, from triplicate samples. g, Quantitative assessment of Caspase-3 and -7 cleavage following transfection of the same siRNA pools as above (measured by the CaspaseGlo kit, Promega). […]
We employed a high throughput robotics-based approach for massive parallel testing of an arrayed siRNA library to accurately quantify the effects of siRNAs against ˜3,300 druggable genes and 200 microRNAs on the viability of HFF-MYC (stably transduced with a retroviral vector expressing c-MYC), or a control empty vector, HFF-pB^14, see FIG. 1a for schematic of the experimental set-up). […]

[3] = test system: MYC overexpressing cells; assay: IC261 viability by CellTiter-Glo in cells with or without MYC overexpression; type: cell-based, human; details: 48 hrs, HFF with or without c-Myc, Tet21N with or without doxycyclin, IMR-32
Experimental: (§1) a. HFF cell lines with or without c-Myc over-expression were treated with 0-10 uM IC261 for 48 hrs. The cells were exposed to CellTiter-Glo reagent and viability was assessed by ATP-induced chemiluminescence. Values indicate mean±SD. b. Tet21N cells with or without doxycyclin treatment and IMR-32 cells (MYCN+) were treated with 0-30 uM IC261 for 48 hrs. The cells were exposed to CellTiter-Glo reagent and the viability was assessed by ATP-induced chemiluminescence. Values indicate mean±SD. c. Cell growth curves for HFF-pBabe incubated with different concentrations of IC261. d. Cell growth curves for HFF-MYC incubated with different concentrations of IC261.
(§2) As there is strong selection to escape lentiviral-mediated silencing of genes that are necessary for cell growth, we proceeded to evaluate a small molecule inhibitor of CSNK1e enzymatic activity, IC261^33. […] A cohort of ten xenograft bearing mice was randomized into two groups with approximate equal tumor burden; one group was treated with daily subcutaneous injection of IC261 for 8 consecutive days, while the control group was treated with DMSO vehicle only. […] Taken together, the results obtained by genetic knock-down as well as via small molecule inhibitor validate CSNK1e as a potential therapeutic target for MYCN-driven neuroblastoma.

[4] = test system: IMR-32 cells (MYCN+); assay: IC261 viability by CellTiter-Glo in IMR-32 cells; type: cell-based, human; details: 0-30 uM, 48 hrs
Experimental: as §1, §2

[5] = test system: MYCN amplified neuroblastoma xenograft (IMR32); assay: IC261 treatment of MYCN amplified neuroblastoma xenograft; type: in vivo, NOD/SCID mice
Experimental: FIG. 3. IC261 treatment blocks MYCN amplified neuroblastoma tumor growth in vivo. a, Representative images of MYCN amplified neuroblastoma xenograft in NOD/SCID mice before and after treatment with either DMSO or IC261. Tumors were engrafted, and allowed to reach a size of about 100 mm^3, then IC261 (21.5 mg/kg) or DMSO was injected subcutaneously daily for 8 days. b, Quantitation of tumor size over the 8-day treatment regimen with either IC261 or DMSO control. Values represent mean tumor volume at each time point (n=5 for each group, error bars indicate SD). c, Immunohistochemical analysis of tumor sections from IC261 and DMSO treatment groups described in a and b. Representative images of H-E, TUNEL and BrdU staining for each group are shown. BrdU was administered 2 h before collection. d. Quantification of TUNEL positive cells and BrdU positive cells per field in DMSO or IC-261 treated xenograft tumors. Error bars indicate SD of means.
as §2

Compound	% Viability HFF-pB [1]	Z score (>than) ([2]; differential loss of viability HFF-MYC versus HFF-pB)	Ratio pBabe/Myc ([2]; ratio of percent viability of a given siRNA pool in HFF-pB/HFF-MYC)	% Viability HFF-MYC ([2]; siRNA pool (3 siRNAs/pool), day 5, average of 3 replicates, relative to median of wells transfected with siRNA to luciferase)	differences in IC50, MYC overexpressing versus normal or low MYC expressing cells [3]	sensitivity to IC261 in vitro [4]	tumor growth ([5]; 21.5 mg/kg subcutaneously daily for 8 days)	apoptosis by TUNEL staining of tumor tissue ([5]; after IC261 treatment)	BrdU labeling of tumor tissue ([5]; after IC261 treatment, BrdU 2 h before collection)
CTPS	70.57%	> 2.5	3.63	19.44%					
COc1cc(OC)c(C=C2C(O)=Nc3ccccc32)c(OC)c1 [IC261]					> 100 fold	highly sensitive	effective in halting tumor growth in all treated mice	very little apoptosis was detected	marked decrease in BrdU labeling
